The values below come from patent US9884832B2 (priority 2011, dated 2018).

In test [1] the target is AM2 V27A (valine→alanine mutation at residue 27 in the M2 protein) (Influenza A virus, UniProt P0DOF5, V27A). In kind it is cell-based, influenza virus A/Udorn/72.
Test [2] addresses AM2 S31N (serine→asparagine mutation at residue 31 in the M2 protein) (Influenza A virus, UniProt P0DOF5, S31N). Type of test: cell-based, influenza virus A/Udorn/72.

As to `c1cc(-c2ccc(CNC34CC5CC(CC(C5)C3)C4)o2)[nH]n1` [Example 162a, N-((5-(1H-pyrazol-5-yl)furan-2-yl)methyl)adamantan-1-amine], in test [1], the “V27A OOcyte Inhibition at 100 uM (%)” value was “B (key: (A)=31-95%; (B)=0-30%)”. Besides, the “S31N OOcyte Inhibition at 100 uM (%)” value in test [2] is recorded as “B (key: (A)=31-95%; (B)=0-30%)”.
On to `O=c1[nH]cc(CNC23CC4CC(CC(C4)C2)C3)c(=O)[nH]1` [Example 169a, 5-((adamantan-1-ylamino)methyl)pyrimidine-2,4(1H,3H)-dione], for which, in test [1], the “V27A OOcyte Inhibition at 100 uM (%)” value was “B (key: (A)=31-95%; (B)=0-30%)”. For the same compound, the “S31N OOcyte Inhibition at 100 uM (%)” value in test [2] is recorded as “B (key: (A)=31-95%; (B)=0-30%)”.
Turning to `OC1CCC(CNC23CC4CC(CC(C4)C2)C3)CC1` (centres unmarked) [Example 170a, 4-(Adamantan-1-ylaminomethyl)-cyclohexanol], the “V27A OOcyte Inhibition at 100 uM (%)” value in test [1] was “B (key: (A)=31-95%; (B)=0-30%)”. Besides, the “S31N OOcyte Inhibition at 100 uM (%)” value in test [2] was “B (key: (A)=31-95%; (B)=0-30%)”.
For `c1scc2[nH]c(CNC34CC5CC(CC(C5)C3)C4)nc12` [Example 171a, Adamantan-1-yl-(1H-thieno[3,4-d]imidazol-2-ylmethyl)-amine], the “V27A OOcyte Inhibition at 100 uM (%)” value in test [1] is “B (key: (A)=31-95%; (B)=0-30%)”. In addition, in test [2], the “S31N OOcyte Inhibition at 100 uM (%)” value is listed as “A (key: (A)=31-95%; (B)=0-30%)”.
On to `Cn1c(CNC23CC4CC(CC(C4)C2)C3)cc2sccc21` [Example 172a, Adamantan-1-yl-(4-methyl-4H-thieno[3,2-b]pyrrol-5-ylmethyl)-amine], for which the “V27A OOcyte Inhibition at 100 uM (%)” value in test [1] was “B (key: (A)=31-95%; (B)=0-30%)”. Further, in test [2], the “S31N OOcyte Inhibition at 100 uM (%)” value is recorded as “B (key: (A)=31-95%; (B)=0-30%)”.
Consider `Cc1csc2sc(CNC34CC5CC(CC(C5)C3)C4)c(C)c12` [Example 176a], for which the “V27A OOcyte Inhibition at 100 uM (%)” value in test [1] is reported as “B (key: (A)=31-95%; (B)=0-30%)”. The “S31N OOcyte Inhibition at 100 uM (%)” value in test [2] is “B (key: (A)=31-95%; (B)=0-30%)”.
Take `Cc1c(CNC23CC4CC(CC(C4)C2)C3)sc2ccccc12` [Example 177a, Adamantan-1-yl-(3-methyl-benzo[b]thiophen-2-ylmethyl)-amine]: the “V27A OOcyte Inhibition at 100 uM (%)” value in test [1] is “B (key: (A)=31-95%; (B)=0-30%)”. Besides, the “S31N OOcyte Inhibition at 100 uM (%)” value in test [2] was “B (key: (A)=31-95%; (B)=0-30%)”.
Take `Oc1ccc2[nH]c(CNC34CC5CC(CC(C5)C3)C4)cc2c1` [Example 179a]: in test [1], the “V27A OOcyte Inhibition at 100 uM (%)” value is “B (key: (A)=31-95%; (B)=0-30%)”. For the same compound, in test [2], the “S31N OOcyte Inhibition at 100 uM (%)” value is given as “B (key: (A)=31-95%; (B)=0-30%)”.
With `COc1ccc2cc(CNC34CC5CC(CC(C5)C3)C4)sc2c1` [Example 185a, N-((6-methoxybenzo[b]thiophen-2-yl)methyl)adamantan-1-amine], the “V27A OOcyte Inhibition at 100 uM (%)” value in test [1] was “B (key: (A)=31-95%; (B)=0-30%)”. In addition, the “S31N OOcyte Inhibition at 100 uM (%)” value in test [2] is given as “A (key: (A)=31-95%; (B)=0-30%)”.
As for `COc1ccc2cc(CNC34CC5CC(CC(C5)C3)C4)[nH]c2c1` [Example 186a, N-((6-methoxy-1H-indol-2-yl)methyl)adamantan-1-amine], the “V27A OOcyte Inhibition at 100 uM (%)” value in test [1] is recorded as “B (key: (A)=31-95%; (B)=0-30%)”. In addition, the “S31N OOcyte Inhibition at 100 uM (%)” value in test [2] is listed as “A (key: (A)=31-95%; (B)=0-30%)”.
In the case of `OC12CC3CC(C1)CC(NCc1cccs1)(C3)C2` [Example 187a, 3-[(Thiophen-2-ylmethyl)-amino]adamantan-1-ol], the “V27A OOcyte Inhibition at 100 uM (%)” value in test [1] is recorded as “B (key: (A)=31-95%; (B)=0-30%)”. The “S31N OOcyte Inhibition at 100 uM (%)” value in test [2] is “A (key: (A)=31-95%; (B)=0-30%)”.
Regarding `OC12CC3CC(C1)CC(NCc1ccc(-c4ccccc4)s1)(C3)C2` [Example 191a, 3-[(5-Phenyl-thiophen-2-ylmethyl)-amino]adamantan-1-ol], the “V27A OOcyte Inhibition at 100 uM (%)” value in test [1] was “B (key: (A)=31-95%; (B)=0-30%)”. Also, the “S31N OOcyte Inhibition at 100 uM (%)” value in test [2] is reported as “A (key: (A)=31-95%; (B)=0-30%)”.
The matching figures for `C(=C\c1ccccc1)/CNC12CC3CC(CC(C3)C1)C2` [Example 199a, N-cinnamyladamantan-1-amine]: “B (key: (A)=31-95%; (B)=0-30%)” and “A (key: (A)=31-95%; (B)=0-30%)”.
